Key:
[1] = tested on: giant foxtail; assay: Test A pre-/postemergence greenhouse test; format: in vivo, Setaria faberi; conditions: for Foxtail, Giant plant response rating: 0 to 100 scale
Summary of the method: (§1)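 Test compounds in non-phytotoxic solvent with surfactant were applied as a preemergence soil spray to seeded loam/sand pots and, concurrently, postemergence to plants at 2–10 cm, one- to two-leaf stage. About ten days in greenhouse, then injury visually rated against untreated controls.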

[2] = tested on: Surinam grass; assay: Test C pre-/postemergence test; format: in vivo, Brachiaria decumbens
Summary of the method: (§2)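 Test chemicals were formulated with surfactant in a non-phytotoxic solvent and sprayed both on freshly planted seeds (preemergence) and on 1- to 4-leaf plants of 2–18 cm (postemergence). Flooded-paddy pots received compound directly into 3 cm of standing water, maintained for the test.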

[3] = tested on: velvetleaf; assay: Test C pre-/postemergence test; format: in vivo, Abutilon theophrasti
Summary of the method: as §2

[4] = tested on: wild oat; assay: Test C pre-/postemergence test; format: in vivo, Avena fatua
Summary of the method: as §2

[5] = tested on: wheat; assay: Test A pre-/postemergence greenhouse test; format: in vivo, Triticum aestivum; conditions: for Wheat plant response rating: 0 to 100 scale
Summary of the method: as §1

[6] = tested on: downy brome; assay: Test C pre-/postemergence test; format: in vivo, Bromus tectorum
Summary of the method: as §2

[7] = tested on: redroot pigweed; assay: Test A pre-/postemergence greenhouse test; format: in vivo, Amaranthus retroflexus; conditions: for Pigweed plant response rating: 0 to 100 scale
Summary of the method: as §1

[8] = tested on: common (oilseed) sunflower; assay: Test C pre-/postemergence test; format: in vivo, Helianthus annuus
Summary of the method: as §2

[9] = tested on: woolly cupgrass; assay: Test C pre-/postemergence test; format: in vivo, Eriochloa villosa
Summary of the method: as §2

[10] = tested on: catchweed bedstraw; assay: Test C pre-/postemergence test; format: in vivo, Galium aparine
Source text: Seeds of plant species selected from blackgrass (Alopecurus myosuroides), downy brome (Bromus tectorum), green foxtail (Setaria viridis), Italian ryegrass (Lolium multiflorum), wheat (Triticum aestivum), wild oat (Avena fatua), catchweed bedstraw (Galium aparine), Russian thistle (Salsola kali), […] (Cynodon dactylon), Surinam grass (Brachiaria decumbens), cocklebur (Xanthium strumarium), corn (Zea mays), crabgrass (Digitaria sanguinalis), woolly cupgrass (Eriochloa villosa), giant foxtail (Setaria faberii), Goosegrass (Eleusin indica), johnsongrass (Sorghum halepense), kochia (Kochia scoparia), lambsquarters (Chenopodium album), morningglory (Ipomoea coccinea), eastern black nightshade (Solanum ptycanthum), yellow nutsedge (Cyperus esculentus), pigweed (Amaranthus retroflexus), common ragweed (Ambrosia elation), soybean (Glycine max), common (oilseed) sunflower (Helianthus annuus), and velvetleaf (Abutilon theophrasti) were planted and treated preemergence with test chemicals formulated in a non-phytotoxic solvent mixture which included a surfactant. At the same time, plants selected from these crop and weed species and also winter barley (Hordeum vulgare), canarygrass (Phalaris minor), and chickweed (Stellaria media) were treated with postemergence applications of some of the test chemicals formulated in the same manner. Plants ranged in height from 2 to 18 cm (1- to 4-leaf stage) for postemergence treatments. […] At time of treatment, test pots were flooded to 3 cm above the soil surface, treated by application of test compounds directly to the paddy water, and then maintained at that water depth for the duration of the test. […] A dash (-) response means no test result.

[11] = tested on: eastern black nightshade; assay: Test C pre-/postemergence test; format: in vivo, Solanum ptycanthum
Summary of the method: as §2

[12] = tested on: cocklebur; assay: Test C pre-/postemergence test; format: in vivo, Xanthium strumarium
Summary of the method: as §2

[13] = tested on: wheat; assay: Test C pre-/postemergence test; format: in vivo, Triticum aestivum
Summary of the method: as §2

[14] = tested on: giant foxtail; assay: Test C pre-/postemergence test; format: in vivo, Setaria faberii
Summary of the method: as §2

[15] = tested on: common ragweed; assay: Test C pre-/postemergence test; format: in vivo, Ambrosia elation
Summary of the method: as §2

[16] = tested on: blackgrass; assay: Test C pre-/postemergence test; format: in vivo, Alopecurus myosuroides
Summary of the method: as §2

[17] = tested on: lambsquarters; assay: Test C pre-/postemergence test; format: in vivo, Chenopodium album
Summary of the method: as §2

[18] = tested on: morningglory; assay: Test A pre-/postemergence greenhouse test; format: in vivo, Ipomoea spp.; conditions: for Morningglory plant response rating: 0 to 100 scale
Summary of the method: as §1

[19] = Postemergence, 125 g ai/ha, 0 is no effect, 100 is complete control
[20] = Postemergence, 500 g ai/ha, 0 is no effect, 100 is complete control
[21] = Preemergence, 125 g ai/ha, 0 no effect, 100 complete control
[22] = Preemergence, 500 g ai/ha, 0 to 100 scale where 0 is no effect and 100 is complete control
[23] = 62 g ai/ha, Preemergence, scale 0 to 100
[24] = 125 g ai/ha, preemergence, scale 0 (no effect) to 100 (complete control)
[25] = Preemergence, 31 g ai/ha, scale 0 to 100 (0 no effect, 100 complete control)
[26] = preemergence, 250 g ai/ha, scale 0 (no effect) to 100 (complete control)

Cn1nc(C(F)(F)F)c(C[S+]([O-])c2cc(Br)cc[n+]2[O-])c1Cl (racemic) [Compound 35]
Foxtail, Giant plant response rating [1, 19]: 50 | Foxtail, Giant plant response rating [1, 20]: 80 | Foxtail, Giant plant response rating [1, 21]: 100 | Plant response rating, Foxtail, Giant [1, 22]: 100 | Surinam Grass plant response rating [2, 23]: 55 | Surinam Grass plant response rating [2, 24]: 100 | Plant response rating, Surinam Grass [2, 25]: 30 | Surinam Grass plant response rating [2, 26]: 100 | Velvetleaf plant response rating [3, 23]: 100 | Velvetleaf plant response rating [3, 24]: 100 | Plant response rating, Velvetleaf [3, 25]: 55 | Velvetleaf plant response rating [3, 26]: 100 | Oat, Wild plant response rating [4, 23]: 45 | Oat, Wild plant response rating [4, 24]: 80 | Plant response rating, Oat, Wild [4, 25]: 10 | Oat, Wild plant response rating [4, 26]: 90 | Wheat plant response rating [5, 19]: 40 | Wheat plant response rating [5, 20]: 50 | Wheat plant response rating [5, 21]: 30 | Plant response rating, Wheat [5, 22]: 50 | Bromegrass, Downy plant response rating [6, 23]: 0 | Bromegrass, Downy plant response rating [6, 24]: 0 | Plant response rating, Bromegrass, Downy [6, 25]: 0 | Bromegrass, Downy plant response rating [6, 26]: 30 | Pigweed plant response rating [7, 19]: 60 | Pigweed plant response rating [7, 20]: 80 | Pigweed plant response rating [7, 21]: 100 | Plant response rating, Pigweed [7, 22]: 100 | Sunflower plant response rating [8, 23]: 0 | Sunflower plant response rating [8, 24]: 0 | Plant response rating, Sunflower [8, 25]: 0 | Sunflower plant response rating [8, 26]: 30 | Cupgrass, Woolly plant response rating [9, 23]: 80 | Cupgrass, Woolly plant response rating [9, 24]: 85 | Plant response rating, Cupgrass, Woolly [9, 25]: 0 | Cupgrass, Woolly plant response rating [9, 26]: 100 | Galium plant response rating [10, 23]: 100 | Galium plant response rating [10, 24]: 100 | Plant response rating, Galium [10, 25]: 0 | Galium plant response rating [10, 26]: 100 | Nightshade plant response rating [11, 23]: 100 | Nightshade plant response rating [11, 24]: 100 | Plant response rating, Nightshade [11, 25]: 0 | Nightshade plant response rating [11, 26]: 100 | Cocklebur plant response rating [12, 23]: 0 | Cocklebur plant response rating [12, 24]: 0 | Cocklebur plant response rating [12, 26]: 0 | Wheat plant response rating [13, 23]: 25 | Wheat plant response rating [13, 24]: 25 | Plant response rating, Wheat [13, 25]: 0 | Wheat plant response rating [13, 26]: 25 | Foxtail, Giant plant response rating [14, 23]: 60 | Foxtail, Giant plant response rating [14, 24]: 75 | Plant response rating, Foxtail, Giant [14, 25]: 40 | Foxtail, Giant plant response rating [14, 26]: 98 | Ragweed plant response rating [15, 23]: 0 | Ragweed plant response rating [15, 24]: 50 | Plant response rating, Ragweed [15, 25]: 0 | Ragweed plant response rating [15, 26]: 85 | Blackgrass plant response rating [16, 23]: 0 | Plant response rating, Blackgrass [16, 25]: 0 | Blackgrass plant response rating [16, 26]: 50 | Lambsquarters plant response rating [17, 23]: 100 | Lambsquarters plant response rating [17, 24]: 100 | Plant response rating, Lambsquarters [17, 25]: 100 | Lambsquarters plant response rating [17, 26]: 100 | Morningglory plant response rating [18, 19]: 40 | Morningglory plant response rating [18, 20]: 70 | Morningglory plant response rating [18, 21]: 50 | Plant response rating, Morningglory [18, 22]: 80
